One data set concerns the target T1, human GIP receptor (Homo sapiens, UniProt P48546).
T1 construct: expressed in transfected cells; crude membranes
T1 sequence (P48546 22-466): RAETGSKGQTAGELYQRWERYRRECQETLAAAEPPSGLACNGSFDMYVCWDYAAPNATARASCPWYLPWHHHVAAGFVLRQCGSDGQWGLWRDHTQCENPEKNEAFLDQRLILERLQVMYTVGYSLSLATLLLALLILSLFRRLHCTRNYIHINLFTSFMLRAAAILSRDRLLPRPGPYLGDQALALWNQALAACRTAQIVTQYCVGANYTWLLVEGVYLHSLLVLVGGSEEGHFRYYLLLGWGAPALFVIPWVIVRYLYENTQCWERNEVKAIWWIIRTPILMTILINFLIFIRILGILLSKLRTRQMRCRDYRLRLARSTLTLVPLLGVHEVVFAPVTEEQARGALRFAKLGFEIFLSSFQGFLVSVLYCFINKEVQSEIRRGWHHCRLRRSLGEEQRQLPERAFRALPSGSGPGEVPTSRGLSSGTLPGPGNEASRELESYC
As to the kind of experiment: [125I]-GIP binding (SPA), human GIP receptor.

Data set [1] addresses human GLP-1 receptor (GLP-1R) (Homo sapiens, UniProt P43220). As to the kind of experiment: cAMP pharmacological functional assay in presence of casein, hGLP-1R. It is filed as cell-based.
The conditions of data set [2]: single subcutaneous 200 nMol/kg, male CD-1 mice.
Protocol: The pharmacokinetics of select Examples are evaluated following a single subcutaneous administration of 200 nMol/kg to male CD-1 mice. […] Plasma (K3 EDTA) concentrations are determined using a qualified LC/MS method that measures the intact mass of the Examples. […] Instruments are combined for LC/MS detection.
The conditions of data set [3]: single subcutaneous 50 nMol/kg, male Sprague Dawley rats; mean (SD).
Protocol: (§1) The pharmacokinetics of select Examples are evaluated following a single subcutaneous (SC) administration of 50 nMol/kg (dissolved in PBS, pH 7.4) or single 1 μmol/kg (mixed with 250 mM sodium decanoate (“C10”) and 12 mg/mL soybean trypsin inhibitor (SBTI)) intrajejunal (IJ) administration to male Sprague Dawley rats. […] Pharmacokinetic parameters are calculated using individual plasma concentrations. A qualified LC/MS method that measures the intact mass of the Example is used to determine plasma (K3 EDTA) concentrations. Each Example is tested with an analog peptide as an internal standard. Immunoaffinity based precipitation with anti-GIP/GLP1 antibodies is used to extract each test peptide and analog.
For data set [4] the following is noted: single intrajejunal 1 μmol/kg with 250 mM C10 and 12 mg/mL SBTI, male Sprague Dawley rats.
Protocol: as §1
Data set [5] is described as follows: in vivo. The settings on record: male, Sprague Dawley, rat, plasma, sc, 50 nmol/kg.
Protocol: as §1
Data set [6] is described as follows: in vivo. The settings on record: male, Sprague Dawley, rat, plasma, other: intrajejunal, 1 umol/kg.
Protocol: as §1
The next data set addresses human GLP-1R (Homo sapiens, UniProt P43220). In words: [125I]-GLP-1 binding (SPA), human GLP-1 receptor. Set-up: expressed in transfected cells; crude membranes. The procedure, abridged: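 Frozen cell pellets are lysed on ice in hypotonic Tris buffer, pH 7.5, homogenized, and centrifuged to a membrane pellet resuspended at about 1 to 3 mg/mL. Binding is then measured in HEPES-based buffer at pH 7.4, and curves are fitted to give IC50 and Ki.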

For data set [7], the system named is CD8+ T cell depleted peripheral blood mononuclear cells. As to the kind of experiment: CD4+ T cell assay for potential clinical immunogenicity.
The mark [8] stands for this setting: Examples 10 uM, KLH 0.33 μM, 7 days.

SMILES strings stand for the structures. Read-outs that look alike come from different tables or passages of the source. Numbered stars: 1 amine (or outer) side, 2 acyl side, 3 side chain; on linkers, the order of the positions; unused ones are H or OH. Square brackets hold non-standard residues; d marks the D form. Side chains are listed from the residue outwards. Peptide text beside a SMILES is read from it. * marks the point of attachment. C20 diacid = O=C(O)CCCCCCCCCCCCCCCCCCC(=O)*; αMePhe(2-F) = C[C@](N)(Cc1ccccc1F)C(=O)O; γGlu = O=C(O)[C@H](CCC(=O)[*:2])N[*:1]; αMeL = CC(C)C[C@](C)(N)C(=O)O; AEEA = NCCOCCOCC(=O)O; Aib = CC(C)(N)C(=O)O

Chain of human GLP-1R (P43220 24-463): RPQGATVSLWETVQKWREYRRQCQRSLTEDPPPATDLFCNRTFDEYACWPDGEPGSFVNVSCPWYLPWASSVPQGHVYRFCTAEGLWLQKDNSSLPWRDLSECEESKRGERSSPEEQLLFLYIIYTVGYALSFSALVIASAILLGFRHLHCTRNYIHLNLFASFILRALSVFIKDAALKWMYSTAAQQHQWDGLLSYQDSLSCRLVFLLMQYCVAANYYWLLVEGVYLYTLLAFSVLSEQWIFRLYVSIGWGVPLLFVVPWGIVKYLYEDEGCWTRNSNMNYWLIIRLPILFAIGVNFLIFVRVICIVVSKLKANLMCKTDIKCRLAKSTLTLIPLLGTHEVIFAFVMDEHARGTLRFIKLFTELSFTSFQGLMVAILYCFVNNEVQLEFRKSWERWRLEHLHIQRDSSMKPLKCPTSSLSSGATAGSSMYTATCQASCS
Chain of human GLP-1 receptor (GLP-1R) (P43220 24-463): as above

In general, Ki refers to a measure of affinity in units of concentration, obtained from inhibition or displacement. Lower therefore signals higher affinity. One may read the EC50 as the concentration at which the effect is half-maximal. One may read the CL/F as clearance divided by bioavailability, as obtained after extravascular dosing. In general, Tmax refers to the time at which the peak concentration occurs. In general, half-life refers to how long it takes for the measured level to halve. Low readings indicate fast loss, high ones slow loss. For the compound `CC[C@H](C)[C@H](NC(=O)[C@H](CC(C)C)NC(=O)[C@H](Cc1ccc(O)cc1)NC(=O)[C@@H](CCC(=O)O)NC(=O)[C@@H](NC(=O)[C@H](Cc1ccccc1)NC(=O)[C@H](CCC(=O)O)NC(=O)C(C)(C)NC(=O)[C@H](CCC(N)=O)NC(=O)[C@H](C)NC(=O)[C@H](CCCCNC(=O)COCCOCCNC(=O)COCCOCCNC(=O)CC[C@H](NC(=O)CCCCCCCCCCCCCCCCCCC(=O)O)C(=O)O)NC(=O)[C@H](CCC(=O)O)NC(=O)[C@H](CC(=O)O)NC(=O)[C@H](CC(C)C)NC(=O)[C@](C)(CC(C)C)NC(=O)[C@@H](NC(=O)[C@H](CO)NC(=O)[C@H](Cc1ccc(O)cc1)NC(=O)[C@H](CC(=O)O)NC(=O)[C@H](CO)NC(=O)[C@@H](NC(=O)[C@](C)(Cc1ccccc1F)NC(=O)[C@@H](NC(=O)CNC(=O)[C@H](CCC(=O)O)NC(=O)C(C)(C)NC(=O)[C@@H](N)Cc1ccc(O)cc1)[C@@H](C)O)[C@@H](C)O)[C@@H](C)CC)[C@@H](C)CC)C(=O)N[C@@H](CCC(=O)O)C(=O)NCC(=O)NCC(=O)N1CCC[C@H]1C(=O)N[C@@H](CO)C(=O)N[C@@H](CO)C(=O)NCC(=O)N[C@@H](C)C(=O)N1CCC[C@H]1C(=O)N1CCC[C@H]1C(=O)N1CCC[C@H]1C(=O)N[C@@H](CO)C(N)=O` [Example 1] (H-Y[Aib]EGT[αMePhe(2-F)]TSDYSI[αMeL]LDEK([AEEA-AEEA-γGlu-C20 diacid])AQ[Aib]EFI[dE]YLIEGGPSSGAPPPS-NH2), the Ki came out at 0.0546 nM at human GIP receptor and 6.67 nM on human GLP-1R. The EC50 in [1] amounted to 0.041 nM. For the same compound, the values for the AUCINF_D_obs in data set [2], in data set [3] and in data set [4] were 135.61 hr*kg*nmol/L/nmol, 294.2 (30.0) hr*kg*nmol/L/nmol and 1.31 hr*kg*nmol/L/nmol, respectively. For the same compound, the Cmax/D in data set [2] is reported as 4.84 kg*nmol/L/nmol; in data set [3], 3.34 (0.22) kg*nmol/L/nmol; in data set [4] (mean (SD)), 0.08 (0.05) kg*nmol/L/nmol. Besides, in the data set “in vivo [5]”, the CL/F was 3.42 mL/h/kg. For the same compound, the Tmax in the data set “in vivo [5]” came to 21.3 h; in “in vivo [6]”, 1.33 h. In “in vivo [5]”, this compound showed a half-life of 44.7 h. Further, the “frequency of positive CD+ T cell response (CDI>2.5)” value in data set [7] (CD4+ T cell assay) is “low”. Further, the “% Donor Response (CD4+ T cell response)” value in data set [7] (setting [8]) came out at 9%. In addition, the “Median Response Strength in positive donors (CDI)” value in data set [7] (setting [8]) is recorded as 0.7 CDI.

The record behind these values is patent US12252524B2, “GIP/GLP1 co-agonist compounds” (Eli Lilly and Company, priority 2018, dated 2025).
